Legend:
[1] = Weight loss and mortality in MX-1 xenograft study; type: in vivo, athymic nude mice; details: efficacious dose, administered alone
Protocol: Its activity is not affected by the multidrug resistance (MDR) phenotype.
Administration of suboptimal doses of 3 mg/kg cisplatin i.v. bolus or 15 mg/kg/hr compound 1 i.v. infusion for 4 hours was compared with the efficacy of coadministration against MX-1 tumors.

[2] = system: MX-1 human mammary tumor xenografts; assay: MX-1 human mammary tumor xenografts in athymic nude mice, tumor growth; type: in vivo
[3] = system: various tumor cell lines; assay: Growth and clonogenic potential of tumor cell lines in culture; type: cell-based
[4] = system: β-tubulin; assay: Tubulin polymerization / binding to β-tubulin; type: biochemical; details: by covalently binding to β-tubulin

SMILES	body weight loss accompanying efficacy, single agent [1]	efficacy against MX-1 tumor, single agent ([2]; efficacious dose, not stated)	activity versus multidrug resistance (MDR) phenotype [3]	growth and clonogenic potential of various tumor cell lines in culture [3]	tubulin polymerization [4]	inhibiting the growth of MX-1 xenografts, single agent ([2]; 30 mg/kg/hr infused i.v. for 4 hours)
N.N.[Cl][Pt][Cl] [Cisplatin, cis-diaminedichloroplatinum (II), reference compound]	accompanied by body weight loss	very efficacious	–	–	–	–
COc1ccc(NS(=O)(=O)c2c(F)c(F)c(F)c(F)c2F)cc1F.[Na] [Compound 1, 2-Fluoro-1-methoxy-4-(pentafluorophenylsulfonamido)benzene, sodium salt]	accompanied by body weight loss	–	not affected	inhibits the growth and clonogenic potential	prevents tubulin polymerization	very effective
